Source: PubChem BioAssay (NCI)
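Interpolation was linear, between the two tested concentrations surrounding the appropriate level; five concentrations were tested over 48 hours in 96-well plates. GI50: concentration for 50% inhibition of growth. Definition used: TGI = concentration required for complete inhibition of growth.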

How the values were obtained:
Test in all cases: NCI anticancer screen, dose series, 48 h
[1] = test system: MDA-MB-435
[2] = test system: SK-MEL-5 melanoma
[3] = test system: IGROV1 ovarian
[4] = test system: NCI-H522 lung
[5] = test system: SF-295 CNS
[6] = test system: SK-MEL-28 melanoma
[7] = test system: UO-31 renal
[8] = test system: RXF 393 renal
[9] = test system: HS 578T breast
[10] = test system: NCI-H226 lung

Row | Compound | GI50 [1] [µM] | TGI [1] [µM] | GI50 [2] [µM] | TGI [2] [µM] | GI50 [3] [µM] | TGI [3] [µM] | GI50 [4] [nM] | TGI [4] [µM] | GI50 [5] [µM] | TGI [5] [µM] | GI50 [6] [µM] | TGI [6] [µM] | GI50 [7] [nM] | TGI [7] [µM] | GI50 [8] [nM] | TGI [8] [µM] | GI50 [9] [µM] | TGI [9] [µM] | GI50 [10] [µM] | TGI [10] [µM]
1 | O=c1ccc2nc(-c3ccccc3)nn(-c3ccccn3)c-2c1 | 15.4 | 33.9 | 13.9 | 33.6 | 14.1 | 45.4 | 1510 | 2.97 | 31 | > 100 | 12.3 | 29.8 | 1450 | 2.81 | 1790 | 3.3 | 23.4 | 98.8 | 20.4 | 57.5
2 | CCOP(=O)(CCCC(O)CNc1cc(Cl)nc(N)n1)OCC (stereo not given) |  | > 100 |  | > 100 |  | > 100 |  | > 100 |  | > 100 |  | > 100 |  | > 100 |  | > 100 |  | > 100 |  | > 100
3 | COc1ccc(-c2c(=O)[nH]n3c(=S)nc(-c4ccccc4)[nH]c23)cc1OC |  | 39.2 |  | 30.1 |  | 56.7 |  | 37.9 |  | 51.4 |  | 54.7 |  | 33.8 |  | 32.4 |  | > 100 |  | 40.7
4 | c1cc(Sc2nc(Sc3ccncc3)nc(Sc3ccncc3)n2)ccn1 |  | > 100 |  | > 100 |  | > 100 |  | > 100 |  | > 100 |  | > 100 |  | > 100 |  | > 100 |  | > 100 |  | > 100
5 | N#CCCCC[N+]12CN3CN(CN(C3)C1)C2 |  | > 100 |  | > 100 |  | > 100 |  | > 100 |  | > 100 |  | > 100 |  | > 100 |  | > 100 |  | > 100 |  | > 100
6 | CC(C)(C)C(=O)C(C(=O)C(C)(C)C)C(=O)C(C)(C)C |  | > 100 |  | > 100 |  | > 100 |  | > 100 |  | > 100 |  | > 100 |  | > 100 |  | > 100 |  | > 100 |  | > 100
7 | CC(=O)Nc1ccc(NC(=O)c2c(Cl)c(Cl)c(Cl)c(Cl)c2-c2nc3ccccc3[nH]2)cc1 |  | > 100 |  | > 100 |  | > 100 |  | > 100 |  | > 100 |  | > 100 |  | > 100 |  | 81.5 |  | > 100 |  | > 100
8 | Nc1c2c(=O)[nH]c(=O)c2c(N)c2c(=O)c3ccccc3c(=O)c12 |  | 2.46 |  | 0.394 |  | 10.8 |  | 13.5 |  | 3.07 |  | 3.98 |  | 31.1 |  | 35.6 |  | > 25.9 |  | 4.96
9 | COC(=O)c1ccccc1C1CN=NC12Cc1ccc(C)c(C)c1C2=O (stereo not given) |  | > 100 |  | > 100 |  | > 100 |  | > 100 |  | > 100 |  | > 100 |  | > 100 |  | > 100 |  | > 100 |  | > 100
10 | Cn1nc2ccc3nccc(N4CCN(CCO)CC4)c3c2n1 |  | > 100 |  | > 100 |  | > 100 |  | > 100 |  | > 100 |  | > 100 |  | > 100 |  | > 100 |  | > 100 |  | > 100
11 | CC1(C)O[C@@H]2[C@@H](COC(=O)c3ccccc3)C[C@@H](C#N)[C@@H]2O1 |  | > 100 |  | > 100 |  | > 100 |  | > 100 |  | > 100 |  | > 100 |  | > 100 |  | > 100 |  | > 100 |  | > 100
12 | CC(C)=CCNc1ncnc2nc[nH]c12 |  | > 100 |  | > 100 |  | > 100 |  | > 100 |  | > 100 |  | > 100 |  | > 100 |  | > 100 |  | > 100 |  | > 100
13 | Cc1c(C)c2c(c(N)c1C#N)C(=O)N(Nc1ccccc1)C2=O |  | > 100 |  | > 100 |  | > 100 |  | > 100 |  | > 100 |  | > 100 |  | > 100 |  | 47.1 |  | > 100 |  | > 100
14 | COc1ccc(/C=C/C(=O)/C=C/c2ccc(OC)cc2)cc1 |  | 29.6 |  | > 100 |  | > 100 |  | > 100 |  | > 100 |  | > 100 |  | > 100 |  | 36.6 |  | > 100 |  | 98.3
15 | O=C(CSc1nc2ccccc2s1)c1sc2sc3ccccc3[n+]2c1[O-] |  | > 100 |  | > 100 |  | > 100 |  | > 100 |  | > 100 |  | > 100 |  | > 100 |  | > 100 |  | > 100 |  | > 100
16 | N#Cc1c(O)c(N=Nc2ccccc2F)c(=O)n2c1[nH]c1ccccc12 |  | > 100 |  | > 100 |  | > 100 |  | 94.9 |  | > 100 |  | > 100 |  | > 100 |  | > 100 |  | 65.4 |  | > 100
